Usually IC50 stands for the midpoint of a concentration-inhibition curve. The low end stands for greater potency in that assay, the high end for weaker potency in that assay.

Structures are written as SMILES. Calls of active or inactive are those of the source. The calls are words filed in the database; no cut-off is given here.

For one assay, the system named is MCF7. Put plainly: Antiproliferative activity against human MCF7 cells after 72 hrs by MTT assay. The settings on record: MCF7, 72 h. The assay is classed as functional, cell-based. (Tetrazolium assays rely on reduction of a dye to a coloured formazan, in cell work by metabolically active cells.)
Another assay deals with HEK293. As to the kind of experiment: Antiproliferative activity against human HEK293 cells after 72 hrs by MTT assay. The assay is classed as cell-based. The following applies: HEK293, 72 h.
The nature of assay [1]: Antioxidant activity assessed as ferric ion reducing activity at 20 to 320 umol after 20 mins by FRAP assay. The assay is classed as functional.

With `CC(=O)/C=C/c1cnc(C)c2c1COC(C)(C)O2`, the figures for the IC50 in the assay on MCF7 and in the assay with HEK293 were 6.6 µM and 17 µM, respectively.

Consider `CC(=O)/C=C/c1cnc(C)c(O)c1CO`, for which the values for the IC50 in the assay with MCF7 and with HEK293 were 398 µM and 121 µM, respectively.

On to `CC(=O)/C=C/c1cnc(C)c2c1COC1(CCCC1)O2`, for which the values for the IC50 in the assay on MCF7 and with HEK293 were 7.2 µM and 17 µM, respectively.

As to `COc1cc(/C=C/C(=O)CC(=O)/C=C/c2ccc(O)c(OC)c2)ccc1O`, in assay [1], the result was Active.

As for `CCCCCCCCCC(C)C1OCc2c(/C=C/C(C)=O)nc(C)c(O)c2CO1` (stereo not given), the IC50 in the assay with MCF7 is 2.9 µM; in the assay on HEK293 it was 1.4 µM.

On to `CCCC1OCc2c(/C=C/C(C)=O)nc(C)c(O)c2CO1` (stereo not given), for which the IC50 in the assay with MCF7 was 4.6 µM; in the assay on HEK293, 13 µM.

Take `CC(=O)/C=C/c1cnc(C)c2c1COC(C(C)(C)C)O2` (stereo not given): the IC50 in the assay on MCF7 was 4.1 µM; in the assay with HEK293, 1.2 µM.

As for `CCCCCCCCCC(C)C1OCc2c(/C=C/C(C)=O)cnc(C)c2O1` (stereo not given), the IC50 was 2.4 µM in the assay on MCF7 and 7 µM in the assay with HEK293.

For the origin of these results see ChEMBL document CHEMBL4261654, “Synthesis and in vitro antitumor activity of novel alkenyl derivatives of pyridoxine, bioisosteric analogs of feruloyl methane” (Bioorg Med Chem, 2018).
